In test [1] the test system is thyroid nodule localized to the right side of the thyroid gland. Put plainly: Case 2: subject with thyroid nodule given the preferred embodiment. To be noted: increasing doses, before the preferred embodiment. The format is in vivo.
From the text: […]

The subject of test [2] is atrophic or neovascular AMD. To be noted: group with the highest dietary intake of either carotenoid; cited from earlier work.
The subject of the next test is sarcoma S-180 cells. To be noted: high dose; cited from earlier work.
In another test the test system is VEGF. The following applies: mice with the highest survival rates; cited from earlier work.
A further test relates to bFGF. The following applies: mice with the highest survival rates; cited from earlier work.
Another test has as its system MMP2. To be noted: mice with the highest survival rates; cited from earlier work.

Data on 4 compounds can be found in patent publication US8652518B2, “Compositions and methods for the prevention and treatment of diseases or conditions associated with oxidative stress, inflammation, and metabolic dysregulation” (priority 2012, dated 2014).

Turning to `N[C@@H](Cc1cc(I)c(Oc2cc(I)c(O)c(I)c2)c(I)c1)C(=O)O` [levothyroxine sodium], in test [1], the “effect on growth of the thyroid nodule” value was “did not seem to inhibit the growth of the nodule”.

Consider `CC1=C[C@H](O)CC(C)(C)[C@H]1/C=C/C(C)=C/C=C/C(C)=C/C=C/C=C(C)/C=C/C=C(C)/C=C/C1=C(C)C[C@@H](O)CC1(C)C` [lutein], for which, in test [2], the “reduction in the risk of developing atrophic or neovascular AMD” value is given as “forty”.

For `O=C1O[C@H]([C@@H](O)CO)C(O)=C1O` [vitamin C, ascorbic acid], in the test with sarcoma S-180 cells, the “increase of survival rate as compared to control models” value is given as 20%. Also, in the test on VEGF, the “inhibition of expression of VEGF gene” value was 7 times. For the same compound, in the test with bFGF, the “inhibition of expression of bFGF gene” value is 0.3 times. Moreover, the “inhibition of expression of MMP2 gene” value in the test with MMP2 is 4 times.

As for `CC1=C(/C=C/C(C)=C/C=C/C(C)=C/C=C/C=C(C)/C=C/C=C(C)/C=C/C2=C(C)C[C@@H](O)CC2(C)C)C(C)(C)C[C@H](O)C1` [zeaxanthin], the “reduction in the risk of developing atrophic or neovascular AMD” value in test [2] is on record as “forty”.
